Our source for the IC50 values is patent US11840533B2, “Pyridinone-based epigenetic modifiers and uses thereof” (THE BOARD OF TRUSTEES OF THE UNIVERSITY OF ILLINOIS, priority 2017, dated 2023).

One experiment relates to fulvestrant-resistant MCF7:5C-FR cells. The experiment is described as follows: Fulvestrant-resistant breast cancer cell viability (cell proliferation) assay. The experiment is classed as cell-based. Particulars: 120 h, growth inhibition in fulvestrant-resistant MCF-7:CFR cells, 120 hrs. The protocol:
For the cell proliferation assay, the fulvestrant-resistant MCF7:5C-FR cells were seeded at about 2000 to about 2500/well in 96-well plates. The next day, compounds were add to the cells at desired serial concentrations form 3 nM to 10 uM. A final 0.1% (v/v) DMSO was used as vehicle control and 1 uM JQ1 was used as positive. The cell were grown in the normal culture condition for 120 hrs. Then the Hoechst 33342 dye were add to each well at a final concentration of 5 μg/ml, and put back to the incubator at 37 C for 90 min. The plates were scanned immediately after the incubation with Celigo (Nexcelcom Biocesnse) for the fluorescence of the nuclear using DAPI channel, and the cell number was counted thought the analysis function of the Celigo software. The normalized cell number to the vehicle control was used to represent the cell proliferation. […] N.D.=Not determined.
Regarding `Cn1cc(-c2cc(NS(C)(=O)=O)c3ccn(CC4CC(F)(F)C4)c3c2)c2cc[nH]c(=O)c21` [Compound 73, N-(1-((3,3-difluorocyclobutyl)methyl)-6-(1-methyl-7-oxo-6,7-dihydro-1H-pyrrolo[2,3-c]pyridin-3-yl)-1H-indol-4-yl)methanesulfonamide], the IC50 (in general, the concentration that gives 50% inhibition) is 62 nM. On to `CCS(=O)(=O)Nc1cc(-c2cn(C)c3c(O)nccc23)cc2c1cnn2Cc1ccc(F)cc1F` [Compound 34, N-(1-(2,4-difluorobenzyl)-6-(7-hydroxy-1-methyl-1H-pyrrolo[2,3-c]pyridin-3-yl)-1H-indazol-4-yl)ethanesulfonamide], for which the concentration for half-maximal inhibition (IC50) is under 500 nM. Take `CCS(=O)(=O)Nc1cc(-c2cn(C)c3c(O)nccc23)cc2c1ccn2Cc1cc(Cl)cc(OCCN(C)C)c1` [Compound 56, N-(1-(3-chloro-5-(2-(dimethylamino)ethoxy)benzyl)-6-(7-hydroxy-1-methyl-1H-pyrrolo[2,3-c]pyridin-3-yl)-1H-indol-4-yl)ethanesulfonamide]: the IC50 is over 100 nM. With `CCS(=O)(=O)Nc1cc(-c2cn(C)c3c(O)nccc23)cc2c1ccn2Cc1ccc(C#N)cc1` [Compound 58, N-(1-(4-cyanobenzyl)-6-(7-hydroxy-1-methyl-1H-pyrrolo[2,3-c]pyridin-3-yl)-1H-indol-4-yl)ethanesulfonamide], the IC50 was under 1000 nM. `CCS(=O)(=O)Nc1cc(-c2cn(C)c3c(=O)[nH]ccc23)cc2c1ccn2C(C)(c1cnccn1)c1cnccn1` [Compound 76, N-(1-(1,1-di(pyrazin-2-yl)ethyl)-6-(7-hydroxy-1-methyl-1H-pyrrolo[2,3-c]pyridin-3-yl)-1H-indol-4-yl)ethanesulfonamide]: the IC50 is under 1000 nM. `CCS(=O)(=O)Nc1cc(-c2cn(C)c3c(O)nccc23)cc2c1ccn2[C@@H](c1ccccc1)C1CCOCC1` [Compound 92, (R)-N-(6-(7-hydroxy-1-methyl-1H-pyrrolo[2,3-c]pyridin-3-yl)-1-(phenyl(tetrahydro-2H-pyran-4-yl)methyl)-1H-indol-4-yl)ethanesulfonamide] returned an IC50 of under 1000 nM.

For the molecule `CS(=O)(=O)Nc1cc(-c2cn(CC(=O)CCl)c3c(O)nccc23)cc2c1ccn2Cc1ccc(F)cc1` [Compound 90, N-(6-(1-(3-chloro-2-oxopropyl)-7-hydroxy-1H-pyrrolo[2,3-c]pyridin-3-yl)-1-(4-fluorobenzyl)-1H-indol-4-yl)methanesulfonamide], the IC50 was under 1000 nM. `Cn1cc(-c2cc(NS(C)(=O)=O)c3ccn(Cc4cccc(F)c4)c3c2)c2cc[nH]c(=O)c21` [Compound 100, N-(1-(3-fluorobenzyl)-6-(1-methyl-7-oxo-6,7-dihydro-1H-pyrrolo[2,3-c]pyridin-3-yl)-1H-indol-4-yl)methanesulfonamide] gave an IC50 of under 1000 nM.

For the molecule `CCS(=O)(=O)Nc1cc(-c2cn(C)c3c(O)nccc23)cc2c1ccn2Cc1ccc(F)cc1F` [Compound 29, N-(1-(2,4-difluorobenzyl)-6-(7-hydroxy-1-methyl-1H-pyrrolo[2,3-c]pyridin-3-yl)-1H-indol-4-yl)ethanesulfonamide], the IC50 was under 500 nM. As to `CCC(c1ccccn1)(c1ccccn1)n1c(-c2cn(C)c3c(O)nccc23)nc2c(NS(=O)(=O)CC)cccc21` [Compound 127, N-(1-(1,1-di(pyridin-2-yl)propyl)-2-(7-hydroxy-1-methyl-1H-pyrrolo[2,3-c]pyridin-3-yl)-1H-benzo[d]imidazol-4-yl)ethanesulfonamide], the IC50 is under 1000 nM.

The molecule `Cn1cc(C(OCc2ccc(F)cc2)c2cccc(-c3ccc(F)cc3)c2)c2ccnc(O)c21` (centres unmarked) [Compound 9, 3-((4′-fluoro-[1,1′-biphenyl]-3-yl)((4-fluorobenzyl)oxy)methyl)-1-methyl-1H-pyrrolo[2,3-c]pyridin-7-ol] yielded an IC50 of over 5000 nM. The same measure, in the same setting: next, `CCS(=O)(=O)Nc1cc(-c2cn(C)c3c(O)nccc23)cc2c1ccn2Cc1cc(Cl)ccc1Cl` [Compound 52, N-(1-(2,5-dichlorobenzyl)-6-(7-hydroxy-1-methyl-1H-pyrrolo[2,3-c]pyridin-3-yl)-1H-indol-4-yl)ethanesulfonamide]: under 1000 nM; `Cn1cc(C(=O)c2ccccc2Cl)c2ccnc(O)c21` [Compound 6, (2-chlorophenyl)(7-hydroxy-1-methyl-1H-pyrrolo[2,3-c]pyridin-3-yl)methanone]: over 5000 nM; `Cc1cc(F)cc(C)c1Cn1ccc2cc(NS(C)(=O)=O)cc(-c3cn(C)c4c(O)nccc34)c21` [Compound 22, N-(1-(4-fluoro-2,6-dimethylbenzyl)-7-(7-hydroxy-1-methyl-1H-pyrrolo[2,3-c]pyridin-3-yl)-1H-indol-5-yl)methanesulfonamide]: 526 nM.

For the molecule `Cn1ccc2ccnc(O)c21` [Compound 1, 1-methyl-1H-pyrrolo[2,3-c]pyridin-7-ol], the IC50 is over 5000 nM.

With `CCS(=O)(=O)Nc1cc(-c2cn(C)c3c(O)nccc23)cc2c1ccn2[C@H](c1ccccc1)C1CCOCC1` [Compound 91, (S)-N-(6-(7-hydroxy-1-methyl-1H-pyrrolo[2,3-c]pyridin-3-yl)-1-(phenyl(tetrahydro-2H-pyran-4-yl)methyl)-1H-indol-4-yl)ethanesulfonamide], the IC50 is under 1000 nM. With `CCS(=O)(=O)Nc1cc(-c2cn(CCCl)c3c(O)nccc23)cc2c1ccn2Cc1ccc(F)cc1Cl` [Compound 82, N-(1-(2-chloro-4-fluorobenzyl)-6-(1-(2-chloroethyl)-7-hydroxy-1H-pyrrolo[2,3-c]pyridin-3-yl)-1H-indol-4-yl)ethanesulfonamide], the half-inhibitory concentration (IC50) is over 1000 nM.

The molecule `CCS(=O)(=O)Nc1cc(-c2cn(C)c3c(O)nccc23)cc2c1ccn2Cc1c(C)cc(F)cc1C` [Compound 27, N-(1-(4-fluoro-2,6-dimethylbenzyl)-6-(7-hydroxy-1-methyl-1H-pyrrolo[2,3-c]pyridin-3-yl)-1H-indol-4-yl)ethanesulfonamide] had an IC50 of under 1000 nM.

Molecule `CCS(=O)(=O)c1cccc2c1cc(-c1cn(C)c3c(O)nccc13)n2[C@H](c1ccccc1)C1CCOCC1` [Compound 120, (S)-3-(4-(ethylsulfonyl)-1-(phenyl(tetrahydro-2H-pyran-4-yl)methyl)-1H-indol-2-yl)-1-methyl-1H-pyrrolo[2,3-c]pyridin-7-ol] came in with an IC50 of under 1000 nM.

`Cn1cc(-c2cc(C(C)(C)O)c3ccn(CC4(C)COC4)c3c2)c2cc[nH]c(=O)c21` [Compound 105, 3-(4-(2-hydroxypropan-2-yl)-1-((3-methyloxetan-3-yl)methyl)-1H-indol-6-yl)-1-methyl-1,6-dihydro-7H-pyrrolo[2,3-c]pyridin-7-one] showed an IC50 of under 1000 nM. Consider `CCS(=O)(=O)c1cc(-c2cn(C)c3c(=O)[nH]ccc23)cc2c1ccn2C(C)(c1ccccn1)c1ccccn1` [Compound 129, 3-(1-(1,1-di(pyridin-2-yl)ethyl)-4-(ethylsulfonyl)-1H-indol-6-yl)-1-methyl-1,6-dihydro-7H-pyrrolo[2,3-c]pyridin-7-one], for which the half-inhibitory concentration (IC50) was under 1000 nM. `CCC(c1ccccn1)(c1ccccn1)n1ccc2c(NS(=O)(=O)CC)cc(-c3cn(C)c4c(=O)[nH]ccc34)cc21` [Compound 126, N-(1-(1,1-di(pyridin-2-yl)propyl)-6-(1-methyl-7-oxo-6,7-dihydro-1H-pyrrolo[2,3-c]pyridin-3-yl)-1H-indol-4-yl)ethanesulfonamide] gave an IC50 of under 10 nM. Consider `CS(=O)(=O)Nc1cc(-c2cn(CCCl)c3c(O)nccc23)cc2c1ccn2Cc1ccc(F)cc1` [Compound 79, N-(6-(1-(2-chloroethyl)-7-hydroxy-1H-pyrrolo[2,3-c]pyridin-3-yl)-1-(4-fluorobenzyl)-1H-indol-4-yl)methanesulfonamide], for which the IC50 is over 100 nM.

Molecule `Cn1cc(-c2cc(C(C)(C)O)c3ccn(Cc4cccc(F)c4)c3c2)c2cc[nH]c(=O)c21` [Compound 107, 3-(1-(3-fluorobenzyl)-4-(2-hydroxypropan-2-yl)-1H-indol-6-yl)-1-methyl-1,6-dihydro-7H-pyrrolo[2,3-c]pyridin-7-one] gave an IC50 of under 1000 nM.

`O=C(c1cccc(-c2ccc(F)cc2)c1)c1c[nH]c2c(O)nccc12` [Compound 3, (4′-fluoro-[1,1′-biphenyl]-3-yl)(7-hydroxy-1H-pyrrolo[2,3-c]pyridin-3-yl)methanone] gave a half-maximal inhibitory concentration (IC50) of over 1000 nM. The molecule `CCS(=O)(=O)Nc1cc(-c2cn(CCCl)c3c(O)nccc23)cc2c1ccn2Cc1c(C)cc(F)cc1C` [Compound 83, N-(6-(1-(2-chloroethyl)-7-hydroxy-1H-pyrrolo[2,3-c]pyridin-3-yl)-1-(4-fluoro-2,6-dimethylbenzyl)-1H-indol-4-yl)ethanesulfonamide] gave an IC50 of over 1000 nM. `Cn1ccnc1C(C)(c1nccn1C)n1ccc2c(C(C)(C)O)cc(-c3cn(C)c4c(=O)[nH]ccc34)cc21` [Compound 110, 3-(1-(1,1-bis(1-methyl-1H-imidazol-2-yl)ethyl)-4-(2-hydroxypropan-2-yl)-1H-indol-6-yl)-1-methyl-1,6-dihydro-7H-pyrrolo[2,3-c]pyridin-7-one] registered an IC50 of under 1000 nM. For `CCS(=O)(=O)Nc1cc(-c2cn(C)c3c(O)nccc23)cc2c1cnn2Cc1ccc(F)cc1C` [Compound 32, N-(1-(4-fluoro-2-methylbenzyl)-6-(7-hydroxy-1-methyl-1H-pyrrolo[2,3-c]pyridin-3-yl)-1H-indazol-4-yl)ethanesulfonamide], the IC50 was under 200 nM.

Still in this experiment, the particulars now being: growth inhibition in fulvestrant-resistant MCF-7:CFR cells, 120 hrs.
The molecule `CCS(=O)(=O)Nc1cc(-c2cn(CCCl)c3c(O)nccc23)cc2c1ccn2Cc1c(C)cccc1C` [Compound 96, N-(6-(1-(2-chloroethyl)-7-hydroxy-1H-pyrrolo[2,3-c]pyridin-3-yl)-1-(2,6-dimethylbenzyl)-1H-indol-4-yl)ethanesulfonamide] showed a concentration for half-maximal inhibition (IC50) of over 100 nM.
